Reference: patent US20050009840A1 (SUGEN, INC., priority 2003, published 2005)

Molecular target: T1, HGFR (Homo sapiens, UniProt P08581)
T1 construct: purchased Upstate 14-526
Assay: HGFR continuous-coupled spectrophotometric assay
Format: biochemical
Details: at 1 pM; Table 7, library procedure 42; read-out: % Inhibition (percent c-MET inhibition)

T1 sequence (P08581 974-1390 limits assumed): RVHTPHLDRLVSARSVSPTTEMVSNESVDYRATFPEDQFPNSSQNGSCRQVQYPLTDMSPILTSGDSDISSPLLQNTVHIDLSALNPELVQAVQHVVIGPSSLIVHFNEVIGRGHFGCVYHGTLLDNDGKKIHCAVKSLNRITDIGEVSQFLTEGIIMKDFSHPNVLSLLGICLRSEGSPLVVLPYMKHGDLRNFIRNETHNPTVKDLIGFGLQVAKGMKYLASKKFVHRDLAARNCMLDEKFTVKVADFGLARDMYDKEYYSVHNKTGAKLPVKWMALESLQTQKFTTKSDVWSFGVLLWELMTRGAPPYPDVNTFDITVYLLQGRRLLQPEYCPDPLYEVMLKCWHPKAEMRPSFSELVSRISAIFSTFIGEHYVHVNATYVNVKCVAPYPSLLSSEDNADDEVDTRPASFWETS

Row | Structure (SMILES) | inhibition at 1 pM
1 | Nc1ncc(-c2ccc(C(=O)N3CCC(N4CCCC4)CC3)cc2)cc1OCc1ccc(OC(F)(F)F)cc1 | 20%
2 | Nc1ncc(-c2ccc(C(=O)N3CCC(N4CCCC4)CC3)cc2)cc1OCc1cc(F)cc(F)c1 | 14%
3 | Nc1ncc(-c2ccc(C(=O)N3CCC(N4CCCC4)CC3)cc2)cc1OCc1cccc(F)c1F | 24%
4 | COc1ccc(-c2nc(COc3cc(-c4ccc(C(=O)N5CCC(N6CCCC6)CC5)cc4)cnc3N)no2)cc1 | 10%
5 | Nc1ncc(-c2ccc(C(=O)N3CCC(N4CCCC4)CC3)cc2)cc1OCc1ncc(C(F)(F)F)cc1Cl | 8%
6 | Nc1ncc(-c2ccc(C(=O)N3CCC(N4CCCC4)CC3)cc2)cc1OCc1csc2ccc(Cl)cc12 | 37%
7 | CC(C)(C)c1ccc(-c2noc(COc3cc(-c4ccc(C(=O)N5CCC(N6CCCC6)CC5)cc4)cnc3N)n2)cc1 | 36%
8 | Cc1noc(C)c1-c1nc(COc2cc(-c3ccc(C(=O)N4CCC(N5CCCC5)CC4)cc3)cnc2N)no1 | 6%
9 | Nc1ncc(-c2ccc(C(=O)N3CCN(C4CCCC4)CC3)cc2)cc1OCc1cc(F)cc2c1OCOC2 | 21%
10 | Nc1ncc(-c2ccc(C(=O)N3CCC(N4CCCC4)CC3)cc2)cc1OCc1cc(C(F)(F)F)cc(C(F)(F)F)c1 | 14%
11 | Nc1ncc(-c2ccc(C(=O)N3CCC(N4CCCC4)CC3)cc2)cc1OCc1ccc(F)c(C(F)(F)F)c1 | 13%
12 | Nc1ncc(-c2ccc(C(=O)N3CCC(N4CCCC4)CC3)cc2)cc1OCc1cc(F)cc(C(F)(F)F)c1 | 12%
13 | Nc1ncc(-c2ccc(C(=O)N3CCC(N4CCCC4)CC3)cc2)cc1OCc1c(F)cccc1C(F)(F)F | 31%
14 | Nc1ncc(-c2ccc(C(=O)N3CCC(N4CCCC4)CC3)cc2)cc1OCc1cc(F)c(F)c(F)c1 | 19%
15 | Nc1ncc(-c2ccc(C(=O)N3CCC(N4CCCC4)CC3)cc2)cc1OCc1ccccc1OC(F)F | 27%
16 | Nc1ncc(-c2ccc(C(=O)N3CCC(N4CCCC4)CC3)cc2)cc1OCc1ccc(C(F)(F)F)c(F)c1 | 25%
17 | Nc1ncc(-c2ccc(C(=O)N3CCC(N4CCCC4)CC3)cc2)cc1OCc1ccc(Br)cc1F | 31%
18 | Nc1ncc(-c2ccc(C(=O)N3CCC(N4CCCC4)CC3)cc2)cc1OCc1cc(Br)cc(Br)c1 | 45%
19 | CS(=O)(=O)c1ccc(COc2cc(-c3ccc(C(=O)N4CCC(N5CCCC5)CC4)cc3)cnc2N)cc1 | 11%
20 | N#Cc1ccccc1-c1ccc(COc2cc(-c3ccc(C(=O)N4CCC(N5CCCC5)CC4)cc3)cnc2N)cc1 | 77%
21 | Nc1ncc(-c2ccc(C(=O)N3CCC(N4CCCC4)CC3)cc2)cc1OCc1ccc(C(=O)NCCN2CCOCC2)cc1 | 11%
22 | CN(C)CCNC(=O)c1ccc(COc2cc(-c3ccc(C(=O)N4CCC(N5CCCC5)CC4)cc3)cnc2N)cc1 | 9%
23 | Nc1ncc(-c2ccc(C(=O)N3CCC(N4CCCC4)CC3)cc2)cc1OCc1ccc(C(=O)N2CCNC(c3ccccc3)C2)cc1 (stereo not shown) | 12%
24 | Nc1ncc(-c2ccc(C(=O)N3CCC(N4CCCC4)CC3)cc2)cc1OCc1ccc(C(=O)NCc2ccccn2)cc1 | 7%
25 | Nc1ncc(-c2ccc(C(=O)N3CCC(N4CCCC4)CC3)cc2)cc1OCc1cccc(C(=O)Nc2cccnc2)c1 | 10%
26 | Nc1ncc(-c2ccc(C(=O)N3CCC(N4CCCC4)CC3)cc2)cc1OCc1cccc(C(=O)NCc2cccnc2)c1 | 14%

Row | Structure (SMILES) | inhibition at 1 pM
27 | Nc1ncc(-c2ccc(C(=O)N3CCC(N4CCCC4)CC3)cc2)cc1OCc1cccc(C(=O)NCc2ccncc2)c1 | 10%
28 | Nc1ncc(-c2ccc(C(=O)N3CCC(N4CCCC4)CC3)cc2)cc1OCc1cccc(C(=O)NCCc2ccccn2)c1 | 12%
29 | Nc1ncc(-c2ccc(C(=O)N3CCC(N4CCCC4)CC3)cc2)cc1OCc1cccc(C(=O)NC2CCN(Cc3ccccc3)C2)c1 (stereo not shown) | 13%
30 | Nc1ncc(-c2ccc(C(=O)N3CCC(N4CCCC4)CC3)cc2)cc1OCc1ccc(C(=O)NCCc2ccccn2)cc1 | 11%
31 | Nc1ncc(-c2ccc(C(=O)N3CCC(N4CCCC4)CC3)cc2)cc1OCc1ccc(C(=O)NCCN2CCCC2)cc1 | 10%
32 | Nc1ncc(-c2ccc(C(=O)N3CCC(N4CCCC4)CC3)cc2)cc1OCc1ccc(C(=O)NCCCN2CCCC2=O)cc1 | 11%
33 | Nc1ncc(-c2ccc(C(=O)N3CCC(N4CCCC4)CC3)cc2)cc1OCc1cccc(C(=O)NC2CCN(Cc3ccccc3)CC2)c1 | 13%
34 | Nc1ncc(-c2ccc(C(=O)N3CCC(N4CCCC4)CC3)cc2)cc1OCc1ccc(C(=O)NC2CCN(Cc3ccccc3)CC2)cc1 | 11%
35 | CCN1CCCC1CNC(=O)c1cccc(COc2cc(-c3ccc(C(=O)N4CCC(N5CCCC5)CC4)cc3)cnc2N)c1 (stereo not shown) | 10%
36 | CCN1CCCC1CNC(=O)c1ccc(COc2cc(-c3ccc(C(=O)N4CCC(N5CCCC5)CC4)cc3)cnc2N)cc1 (stereo not shown) | 18%
37 | CN(C)c1ccc(NC(=O)c2cccc(COc3cc(-c4ccc(C(=O)N5CCC(N6CCCC6)CC5)cc4)cnc3N)c2)cc1 | 23%
38 | CCN(CC)c1ccc(NC(=O)c2ccc(COc3cc(-c4ccc(C(=O)N5CCC(N6CCCC6)CC5)cc4)cnc3N)cc2)cc1 | 47%
39 | Nc1ncc(-c2ccc(C(=O)N3CCC(N4CCCC4)CC3)cc2)cc1OCc1ccc(C(=O)NCc2cccnc2)cc1 | 15%
40 | Nc1ncc(-c2ccc(C(=O)N3CCC(N4CCCC4)CC3)cc2)cc1OCc1ccc(C(=O)NC2CCN(Cc3ccccc3)C2)cc1 (stereo not shown) | 24%
41 | Nc1ncc(-c2ccc(C(=O)N3CCC(N4CCCC4)CC3)cc2)cc1OCc1cccc(C(=O)Nc2ccc(N3CCCCC3)cc2)c1 | 32%
42 | CC(C)Oc1cc(C(F)(F)F)nc2ccc(COc3cc(-c4ccc(C(=O)N5CCC(N6CCCC6)CC5)cc4)cnc3N)cc12 | 19%
43 | Nc1ncc(-c2ccc(C(=O)N3CCC(N4CCCC4)CC3)cc2)cc1OCc1csc(-c2ccc(C(F)(F)F)cc2)n1 | 21%
44 | Nc1ncc(-c2ccc(C(=O)N3CCC(N4CCCC4)CC3)cc2)cc1OCc1ccc2ccccc2c1Br | 59%
45 | CN(C)CCNC(=O)c1cccc(COc2cc(-c3ccc(C(=O)N4CCC(N5CCCC5)CC4)cc3)cnc2N)c1 | 20%
46 | Nc1ncc(-c2ccc(C(=O)N3CCC(N4CCCC4)CC3)cc2)cc1OCc1cc(C(F)(F)F)ccc1Cl | 26%
47 | Nc1ncc(-c2ccc(C(=O)N3CCC(N4CCCC4)CC3)cc2)cc1OCc1cc(F)ccc1C(F)(F)F | 26%
48 | Nc1ncc(-c2ccc(C(=O)N3CCC(N4CCCC4)CC3)cc2)cc1OCc1ccccc1OC(F)(F)F | 21%
49 | CCOC(=O)C1CCN(C(=O)c2ccc(COc3cc(-c4ccc(C(=O)N5CCC(N6CCCC6)CC5)cc4)cnc3N)cc2)CC1 | 16%
50 | CCOC(=O)CCNC(=O)c1cccc(COc2cc(-c3ccc(C(=O)N4CCC(N5CCCC5)CC4)cc3)cnc2N)c1 | 14%
51 | COC(=O)c1ccc(COc2cc(-c3ccc(C(=O)N4CCC(N5CCCC5)CC4)cc3)cnc2N)c(OC)c1 | 15%
52 | Nc1ncc(-c2ccc(C(=O)N3CCC(N4CCCC4)CC3)cc2)cc1OCc1ccc(S(=O)(=O)Nc2ccc(F)cc2)cc1 | 15%

Row | Structure (SMILES) | inhibition at 1 pM
53 | Nc1ncc(-c2ccc(C(=O)N3CCC(N4CCCC4)CC3)cc2)cc1OCc1ccc(-c2ccnc(Br)n2)cc1 | 17%
54 | Nc1ncc(-c2ccc(C(=O)N3CCC(N4CCCC4)CC3)cc2)cc1OCc1cscn1 | 12%
55 | Nc1ncc(-c2ccc(C(=O)N3CCC(N4CCCC4)CC3)cc2)cc1OCc1cccc(CO)n1 | 15%
56 | Nc1ncc(-c2ccc(C(=O)N3CCC(N4CCCC4)CC3)cc2)cc1OCc1cccc(-c2ccnc(Br)n2)c1 | 13%
57 | Nc1ncc(-c2ccc(C(=O)N3CCC(N4CCCC4)CC3)cc2)cc1OCc1ccc(C(F)(F)F)nc1 | 13%
58 | Nc1ncc(-c2ccc(C(=O)N3CCC(N4CCCC4)CC3)cc2)cc1OCc1ccc(-c2cnc(Br)nc2)cc1 | 33%
59 | Nc1ncc(-c2ccc(C(=O)N3CCC(N4CCCC4)CC3)cc2)cc1OCc1cn2ccccc2n1 | 11%
60 | COc1cc(COc2cc(-c3ccc(C(=O)N4CCC(N5CCCC5)CC4)cc3)cnc2N)cc(OC)c1 | 17%
61 | CCOC(=O)CCNS(=O)(=O)c1ccc(COc2cc(-c3ccc(C(=O)N4CCC(N5CCCC5)CC4)cc3)cnc2N)cc1 | 15%
62 | Nc1ncc(-c2ccc(C(=O)N3CCC(N4CCCC4)CC3)cc2)cc1OCc1ccc(C(=O)c2ccccc2)cc1 | 31%
63 | COc1cccc(COc2cc(-c3ccc(C(=O)N4CCC(N5CCCC5)CC4)cc3)cnc2N)c1OC | 23%
64 | Cc1cc(-c2onc(C)c2COc2cc(-c3ccc(C(=O)N4CCC(N5CCCC5)CC4)cc3)cnc2N)no1 | 22%
65 | Cc1nc2ccc(COc3cc(-c4ccc(C(=O)N5CCC(N6CCCC6)CC5)cc4)cnc3N)cc2c(=O)[nH]1 | 12%
66 | Nc1ncc(-c2ccc(C(=O)N3CCC(N4CCCC4)CC3)cc2)cc1OCc1ccc(S(=O)(=O)N2CCOCC2)cc1 | 14%
67 | COCOc1ccc(S(=O)(=O)c2ccc(COc3cc(-c4ccc(C(=O)N5CCC(N6CCCC6)CC5)cc4)cnc3N)cc2)cc1 | 18%
68 | COc1ccc2sc(COc3cc(-c4ccc(C(=O)N5CCC(N6CCCC6)CC5)cc4)cnc3N)cc2c1 | 13%
69 | Nc1ncc(-c2ccc(C(=O)N3CCC(N4CCCC4)CC3)cc2)cc1OCc1ccc(S(=O)(=O)c2ccc(F)cc2)cc1 | 13%
70 | Cc1nc2scc(COc3cc(-c4ccc(C(=O)N5CCC(N6CCCC6)CC5)cc4)cnc3N)c2c(=O)[nH]1 | 10%
71 | Nc1ncc(-c2ccc(C(=O)N3CCC(N4CCCC4)CC3)cc2)cc1OCc1cncc2ccccc12 | 9%
72 | Cn1c(COc2cc(-c3ccc(C(=O)N4CCC(N5CCCC5)CC4)cc3)cnc2N)nc2ccccc21 | 10%
73 | Nc1ncc(-c2ccc(C(=O)N3CCC(N4CCCC4)CC3)cc2)cc1OCc1nc(-c2ccccn2)no1 | 9%
74 | Nc1ncc(-c2ccc(C(=O)N3CCC(N4CCCC4)CC3)cc2)cc1OCc1c(F)ccc(F)c1Cl | 50%
75 | Cc1ccc(COc2cc(-c3ccc(C(=O)N4CCC(N5CCCC5)CC4)cc3)cnc2N)c(F)c1F | 39%
76 | Cc1ccc(F)c(COc2cc(-c3ccc(C(=O)N4CCC(N5CCCC5)CC4)cc3)cnc2N)c1F | 51%
